30 molecules from ChEMBL document CHEMBL6127051, “Hydrazinecarboxamides: Comprehensive review of their anticancer, anticonvulsive, anti-inflammatory, enzyme inhibition, antioxidant and other activities” (Eur J Med Chem, 2024) can be followed below.

In test [1] the test system is HepG2. The test can be described thus: Antiproliferative activity against human HepG2 cells assessed as reduction in cell viability measured for 24 hrs by MTT assay. The conditions noted are these: HepG2, 24 h.
The test system of test [2] is MCF7. The test can be described thus: Antiproliferative activity against human MCF7 cells assessed as reduction in cell viability incubated for 72 hrs by MTT assay. Format: functional, cell-based. As to conditions: MCF7, 72 h. (In general: Tetrazolium dyes change colour on reduction, which living cells bring about.)
Test [3] concerns A549. The test can be described thus: Antiproliferative activity against human A549 cells assessed as reduction in cell viability by MTT assay. In kind it is functional, cell-based.
Test [4] concerns A549. The test can be described thus: Antiproliferative activity against human A549 cells. In kind it is functional, cell-based.
In test [5] the test system is MCF7. The test can be described thus: Antiproliferative activity against human MCF7 cells assessed as reduction in cell viability measured for 72 hrs by MTT assay. In kind it is functional, cell-based. As to conditions: MCF7, 72 h.
In test [6] the test system is Mus musculus. The test can be described thus: Anticonvulsant activity in ip dosed MES induced Kunming mouse seizure model. In kind it is functional.
Test [7] in a line: Antioxidant activity assessed as DPPH radical scavenging activity at 10 ug/ml. Format: functional. As to conditions: dose 10.0 µg/ml. (In general: The DPPH test is a chemical assay of radical scavenging.)
The test system of test [8] is Mus musculus. The test can be described thus: Anticonvulsant activity in ip dosed scPTZ induced Kunming mouse seizure model. Format: functional.
The test system of test [9] is MCF7. The test can be described thus: Anticancer activity against human MCF7 cells assessed as reduction in cell growth measured after 3 days by MTT assay. In kind it is functional, cell-based. The conditions noted are these: MCF7, 72 h.
Test [10] deals with A549. The test can be described thus: Antiproliferative activity against human A549 cells assessed as reduction in cell viability measured for 24 hrs by MTT assay. As to conditions: A549, 24 h.
The target of test [11] is T1, Retinoic acid receptor RXR-alpha (Homo sapiens, UniProt P19793).
T1 sequence (P19793 whole entry): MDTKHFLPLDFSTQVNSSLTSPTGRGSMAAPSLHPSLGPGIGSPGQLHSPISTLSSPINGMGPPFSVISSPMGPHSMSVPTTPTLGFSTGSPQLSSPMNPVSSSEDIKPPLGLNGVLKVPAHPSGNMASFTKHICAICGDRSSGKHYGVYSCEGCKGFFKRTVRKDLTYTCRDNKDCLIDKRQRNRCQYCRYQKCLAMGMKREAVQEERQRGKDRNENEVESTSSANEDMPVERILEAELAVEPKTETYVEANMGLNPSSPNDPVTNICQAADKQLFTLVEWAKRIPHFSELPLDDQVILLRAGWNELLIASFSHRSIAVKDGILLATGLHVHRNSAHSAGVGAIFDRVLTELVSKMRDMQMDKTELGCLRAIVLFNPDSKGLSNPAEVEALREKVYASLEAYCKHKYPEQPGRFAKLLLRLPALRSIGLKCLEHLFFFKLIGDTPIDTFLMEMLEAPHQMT
The test can be described thus: Antagonist activity at RXRalpha (unknown origin) by Alpha Screen assay.

The nature of test [12]: Inhibition of Escherichia coli beta-glucuronidase.
For test [13], the system named is MCF7. The test can be described thus: Cytotoxicity against human MCF7 cells assessed as reduction in cell growth. In kind it is functional, cell-based.
Test [14] deals with NCI-H460. The test can be described thus: Antiproliferative activity against human NCI-H460 cells by MTT assay. Format: functional, cell-based.
In test [15] the test system is MCF7. The test can be described thus: Antiproliferative activity against human MCF7 cells by MTT assay. In kind it is functional, cell-based.
Test [16] concerns Mus musculus. The test can be described thus: Anticonvulsant activity in po dosed scPTZ induced mouse model measured after 4 hrs. In kind it is functional.
The test system of test [17] is A549. The test can be described thus: Anticancer activity against human A549 cells assessed as inhibition of cell growth at 3 uM incubated for 48 hrs by MTT assay relative to control. In kind it is functional. Set-up: scale not given: the % may be the effect or the level left.
The subject of test [18] is PC-3. The test can be described thus: Anticancer activity against human PC-3 cells assessed as inhibition of cell growth at 3 uM incubated for 48 hrs by MTT assay relative to control. Format: functional. On the set-up: scale not given: the % may be the effect or the level left.

A word on the IC50: it is the concentration needed to halve the response being measured. For `CNC(=O)c1cc(Oc2ccc(NC(=O)Nc3ccc(Cl)c(C(F)(F)F)c3)cc2)ccn1` [SORAFENIB], the IC50 in [1] stood at 16900 nM.
As for `COc1cc(NC(C)CCCNC(=O)NNC(=O)NC(c2ccccc2)c2ccccc2)c2ncccc2c1` (stereo not given), the IC50 in test [2] worked out at 1000 nM; in test [3], 4000 nM; in [4], 1500 nM.
For the molecule `O=C(NNC(=O)c1cc2ccccc2[nH]1)NC1CCCCC1`, in test [5], the IC50 stood at 1200 nM.
As a reminder, the ED50 is the dose at which the effect has come halfway, by size or by number of responders. Turning to `COc1cc(C(=O)NN2C(=O)C(=O)N(Cc3ccccc3)C2=O)cc2c1OCCO2`, in test [6], the ED50 stood at 13.7 mg/kg.
Regarding `COc1ccc(/C=C2\N=C(C)N(NC(=O)N3c4ccccc4C=Cc4ccccc43)C2=O)c(OC)c1`, the Activity in test [7] was determined as 73.9%.
Consider `CCOC(=O)C1(NC(=O)NNc2ccc(F)c(Cl)c2)CC1(C)C` (stereo not given), for which, in test [8], the 50% effect level (ED50) was put at a dose of 58.1 mg/kg.
Turning to `COc1cc(NC(C)CCCNC(=O)NNC(=O)/C=C/c2ccccc2)c2ncccc2c1` (stereo not given), in test [9], the IC50 turned out to be 30 nM.
In the case of `COc1cc(NC(C)CCCNC(=O)NNC(=O)NCCc2ccccc2)c2ncccc2c1` (stereo not given), the half-maximal inhibitory concentration (IC50) is 1000 nM in test [2], 4000 nM in [3] and 1500 nM in test [4].
What is called EC50 is the midpoint of the concentration-response curve. Turning to `O=C(NNC(=S)NCc1ccccc1)c1ccc(Nc2nccc(-c3ccccn3)n2)cc1`, the IC50 in [1] was 2170 nM; in test [10] it was 8390 nM. Moreover, the EC50 in test [11] was found to be 1050 nM.
In the case of `CC1=N/C(=C\c2ccc(Cl)cc2)C(=O)N1NC(=O)N1c2ccccc2C=Cc2ccccc21`, the Activity in [7] is 73.9%.
`COc1ccc(NC(=O)NNC(=O)CCc2ccccc2OC)cc1` returned an IC50 in test [12] of 15500 nM.
On to `O=C(NCCc1ccccc1)NNC(=O)n1nnc2ccccc21`, for which the IC50 in test [13] came to 79000 nM.
On to `COc1ccc(/C=C/C(=O)NNC(=O)NCCCC(C)Nc2cc(OC)cc3cccnc23)cc1` (stereo not given), for which the IC50 in test [9] was 30 nM.
For `Cc1nc(-c2cccnc2)ccc1C(=O)NNC(=O)Nc1ccc(F)cc1F`, the IC50 in test [14] and in test [15] was 8890 nM in each case.
For `O=C(NCCc1ccccc1)NNC(=O)c1ccc(Nc2nccc(-c3ccncc3)n2)cc1`, the IC50 in test [1] was determined as 2170 nM; in test [10], 8390 nM. The molecule further showed an EC50 in test [11] of 1050 nM.
`CCOC(=O)C1(NC(=O)NNc2ccc(F)cc2)CC1(C)C` (stereo not given) returned an ED50 in test [8] of 9.2 mg/kg.
Take `COc1cc(NC(C)CCCNC(=O)NNC(=O)NC(=O)c2ccccc2)c2ncccc2c1` (stereo not given): the IC50 in test [2] amounted to 1000 nM; in [3], 4000 nM; in test [4], 1500 nM.
For `CC1(C)CC12NC(=O)N(Nc1ccc([N+](=O)[O-])cc1[N+](=O)[O-])C2=O` (stereo not given), the ED50 in [16] amounted to 126 mg/kg.
For the molecule `COc1cc(NC(C)CCCNC(=O)NNC(=O)/C=C/c2cc(C(F)(F)F)cc(C(F)(F)F)c2)c2ncccc2c1` (stereo not given), the IC50 in test [9] amounted to 30 nM.
On to `O=C(NNC(=O)c1cc2ccccc2[nH]1)Nc1ccc(Cl)c(C(F)(F)F)c1`, for which, in test [5], the IC50 stood at 1200 nM.
Consider `O=C(NNC1=NS(=O)(=O)c2ccccc2N1c1ccccc1)Nc1cc(C(F)(F)F)cc(C(F)(F)F)c1`, for which the Activity in test [17] is 99%; in test [18] it was “>=71%”.
As for `COc1cc(/C=C2\N=C(C)N(NC(=O)N3c4ccccc4C=Cc4ccccc43)C2=O)cc(OC)c1OC`, the Activity in [7] turned out to be 73.9%.
On to `COc1cc(NC(C)CCCNC(=O)NNC(=O)/C=C/c2ccc(OC)c(OC)c2)c2ncccc2c1` (stereo not given), for which, in [9], the IC50 was 30 nM.
Regarding `Cc1nc(-c2cccnc2)ccc1C(=O)NNC(=O)Nc1c(Cl)cc(Cl)cc1Cl`, the IC50 in test [14] and in [15] was 8890 nM each time.
As for `CC(C)N1C(=O)C(=O)N(NCC(=O)N(c2ccccc2)C2(C(N)=O)CCCC2)C1=O`, in [6], the 50% effect level (ED50) was put at a dose of 34.4 mg/kg.
On to `CC1(C)CC12NC(=O)N(Nc1ccc(F)cc1)C2=O` (stereo not given), for which, in test [16], the ED50 came to 61.8 mg/kg.
On to `COc1cc(NC(C)CCCNC(=O)NNC(=O)NOC(=O)c2ccccc2)c2ncccc2c1` (stereo not given), for which the IC50 in [2] worked out at 1000 nM; in test [3], 4000 nM; in test [4], 1500 nM.
In the case of `CC1=N/C(=C\c2ccc([N+](=O)[O-])cc2)C(=O)N1NC(=O)N1c2ccccc2C=Cc2ccccc21`, in test [7], the Activity stood at 73.9%.
Consider `O=C(NNC(=O)n1nnc2ccccc21)NC(=O)c1ccccc1`, for which the IC50 in test [13] was found to be 79000 nM.
As for `COc1cc(NC(C)CCCNC(=O)NNC(=O)/C=C/c2ccc3c(c2)OCO3)c2ncccc2c1` (stereo not given), in test [9], the IC50 came to 30 nM.
